Where two headings read alike, the source gives them in different places.
Assays:
[1] = target: T1, human topoisomerase IIα (Homo sapiens, UniProt P11388); assay: Topoisomerase IIα decatenation inhibition assay; format: biochemical; conditions: K562 cells nuclear extract, kDNA decatenation; for inhibition at 3 µM / inhibition at 30 µM: read-out: % Inhibition of topoisomerase II catalytic activity
T1 construct: 300 ng K562 cells nuclear extract, the amount that gave 80% decatenation; endogenous in cells; host or cells: K562 cells nuclear extract
T1 sequence (P11388 whole entry): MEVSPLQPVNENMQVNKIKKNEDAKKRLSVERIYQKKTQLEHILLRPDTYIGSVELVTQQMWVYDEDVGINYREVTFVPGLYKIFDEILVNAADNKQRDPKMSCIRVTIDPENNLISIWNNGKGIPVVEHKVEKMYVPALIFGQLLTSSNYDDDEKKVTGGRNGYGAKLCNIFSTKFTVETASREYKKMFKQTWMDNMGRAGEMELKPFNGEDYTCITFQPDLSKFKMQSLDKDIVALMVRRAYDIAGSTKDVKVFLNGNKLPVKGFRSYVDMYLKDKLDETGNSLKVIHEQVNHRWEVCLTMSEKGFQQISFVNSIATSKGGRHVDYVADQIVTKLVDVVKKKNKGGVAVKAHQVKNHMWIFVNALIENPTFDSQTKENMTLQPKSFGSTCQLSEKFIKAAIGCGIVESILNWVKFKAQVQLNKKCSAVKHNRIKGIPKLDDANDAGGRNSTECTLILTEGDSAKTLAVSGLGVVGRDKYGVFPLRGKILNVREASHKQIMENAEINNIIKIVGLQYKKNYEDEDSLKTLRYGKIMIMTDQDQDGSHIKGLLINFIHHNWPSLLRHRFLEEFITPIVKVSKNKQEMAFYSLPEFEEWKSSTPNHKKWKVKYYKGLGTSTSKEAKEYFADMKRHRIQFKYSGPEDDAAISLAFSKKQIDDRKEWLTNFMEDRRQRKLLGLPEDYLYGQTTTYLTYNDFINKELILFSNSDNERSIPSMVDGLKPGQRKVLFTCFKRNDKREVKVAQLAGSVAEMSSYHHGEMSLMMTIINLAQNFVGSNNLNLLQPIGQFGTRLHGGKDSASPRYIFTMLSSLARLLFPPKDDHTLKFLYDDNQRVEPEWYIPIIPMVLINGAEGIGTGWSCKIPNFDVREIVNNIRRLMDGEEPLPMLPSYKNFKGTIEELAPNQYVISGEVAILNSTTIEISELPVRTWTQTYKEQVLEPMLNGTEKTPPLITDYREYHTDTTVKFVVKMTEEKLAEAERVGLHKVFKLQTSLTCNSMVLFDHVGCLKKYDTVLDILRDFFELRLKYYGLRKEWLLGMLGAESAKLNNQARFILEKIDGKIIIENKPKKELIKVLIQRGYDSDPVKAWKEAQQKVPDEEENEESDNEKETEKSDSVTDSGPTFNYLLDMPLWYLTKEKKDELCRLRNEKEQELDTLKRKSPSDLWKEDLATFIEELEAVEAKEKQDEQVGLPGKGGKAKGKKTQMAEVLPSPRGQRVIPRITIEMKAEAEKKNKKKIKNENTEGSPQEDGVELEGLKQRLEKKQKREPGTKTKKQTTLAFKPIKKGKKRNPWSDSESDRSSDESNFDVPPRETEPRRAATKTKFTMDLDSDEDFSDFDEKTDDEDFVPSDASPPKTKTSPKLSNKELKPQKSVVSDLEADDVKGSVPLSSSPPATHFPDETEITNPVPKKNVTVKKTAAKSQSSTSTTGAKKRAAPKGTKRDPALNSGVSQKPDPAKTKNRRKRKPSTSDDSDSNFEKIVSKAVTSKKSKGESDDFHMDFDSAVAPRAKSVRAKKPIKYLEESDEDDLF
Method: The catalytic inhibition of human topoisomerase IIα by a drug was measured by the ATP-dependent decatenation of kDNA (Topogen, Columbus, Ohio) into minicircles of DNA as we previously described (Hasinoff 1995 QSAR ICRF-187). The 20 μl reaction mixture contained 0.5 mM ATP, 50 mM Tris-HCl (pH 8.0), 120 mM KCl, 10 mM MgCl2, 30 μg/ml bovine serum albumin, 40 ng kDNA, drug or DMSO (0.5 μl) and 300 ng K562 cells nuclear extract, the amount that gave 80% decatenation. The enzymatic reaction was carried out at 37° C. and was terminated by the addition of 6 μl of buffer containing 5 mM Tris pH 8.0, 30% w/v sucrose, 0.5% bromophenol blue, and 125 mM EDTA. The resulting mixture was separated by electrophoresis (2 h at 8 V/cm) on an agarose gel prepared from 1.2% w/v agarose and 0.5 μg/ml ethidium bromide in TAE buffer pH 8.0 (40 mM Tris base, 0.114% (v/v) glacial acetic acid, 2 mM EDTA). The DNA in the gel was imaged by its fluorescence on an Alpha Annotech Fluorchem 8900 imaging system equipped with a 365 nm illuminator and a CCD camera. Densitometry scanning of gel photographs was used to obtain the fluorescence intensity of the band corresponding to the DNA minicircles. The percentage inhibition of K562 topoisomerase II catalytic activity at concentrations of 3 and 30 μM was determined using the following equation: % Inhibition=[(1−(Bdrug−Bbackground)/Bdmso]×100, where Bdrug is the band intensity value for the enzymatic reaction sample treated with drug, Bbackground is the band intensity value for sample without the enzyme, and Bdmso is the band intensity value for the enzymatic reaction sample treated with DMSO solvent only.

[2] = tested on: human leukemia K562 cells; assay: K562 cell growth inhibition assay (MTS); format: cell-based; conditions: 72 h incubation, read-out: Median growth inhibitory concentration (IC50) of K562 cells
Method: K562 cells were obtained from American Type Culture Collection (Rockville, Md.). These cells were maintained as suspension cultures in alpha minimum essential medium (αMEM) (Gibco BRL, Burlington, Canada) containing 2 mM L-glutamine and supplemented with 10% fetal calf serum (Invitrogen, Burlington, ON, Canada), 20 mM NaHCO3, 20 mM HEPES (Sigma), 100 units/ml penicillin G, and 100 μg/ml streptomycin at pH 7.4 in an atmosphere of 5% CO2 and 95% air at 37° C. For the measurement of growth inhibition, cells in exponential growth were harvested and seeded at 6000 cells/well in 96-well plates (100 μl/well). Drugs were dissolved in DMSO and added to the wells such that the final concentration of DMSO was 0.5% (v/v). After 72 h incubation, 7 μl of 3-(4,5-dimethylthiazol-2-yl)-5-(3-carboxymethoxyphenyl)-2-(4-sulfophenyl)-2H-tetrazolium (MTS) Cell Titer 96® AQueous One Solution (Promega, Md., WI) was added to each well and incubated for a further 3 h. The absorbance was measured in a Molecular Devices (Menlo Park, Calif.) plate reader. The spectrophotometric 96-well plate cell growth inhibition assay measures the ability of the cells to enzymatically reduce MTS. Three replicates were measured at each drug concentration, and the IC50 values and their SEs for growth inhibition were obtained by fitting the absorbance-drug concentration data to a four-parameter logistic equation.

Row | Structure (SMILES) | melting point | % Inhibition of topoisomerase II catalytic activity ([1]; 3 μM) | % Inhibition of topoisomerase II catalytic activity ([1]; 30 μM) | IC50 [2] | inhibition at 3 µM ([1]; 3 μM) | inhibition at 30 µM ([1]; 30 μM) | IC50 ([2]; Homo sapiens, K562, 72 h)
1 | CCOC(=O)C1=C(C(=O)OCC)S(=O)(=O)CCS1(=O)=O [compound 1] | 68 to 70 °C | 70% | 100% | 11000 nM |  |  | 
2 | CC1=C(COc2ccccc2)S(=O)(=O)CCS1(=O)=O [compound 2] |  | 100% | 100% | 1000 nM |  |  | 
3 | O=C(Nc1ccccc1)C1=NOCC[S+]1[O-] (stereo not shown) [compound 3, 4-oxo-5,6-dihydro-N-phenyl-1,4λ^4,2-oxathiazine-3-carboxamide] | 150 to 154 °C |  |  |  | 100% | 100% | 1000 nM
4 | O=C(Nc1ccccc1)C1=NOCCS1(=O)=O [compound 4, 4,4-dioxo-N-phenyl-5,6-dihydro-1, 4λ^6,2-oxathiazine-3-carboxamide] | 206 to 207 °C |  |  |  | 100% | 100% | 700 nM
5 | CCOC(=O)c1ccc(C2=NOCC[S+]2[O-])s1 (stereo not shown) [compound 7] |  | 100% | 100% | 900 nM |  |  | 
6 | [O-][S+]1CCON=C1c1nnc(-c2cccc(Cl)c2)o1 (stereo not shown) [compound 8, 3-[5-(3-chlorophenyl)-1,3,4-oxadiazol-2-yl]-5,6-dihydro-1,4λ^4,2-oxathiazin-4-one] | 208 to 210 °C |  |  |  | 80% | 100% | 4000 nM
7 | O=S1(=O)CCON=C1c1cc2ccccc2s1 [compound 10] |  | 100% | 100% | 500 nM |  |  | 
8 | CC1C[S+]([O-])C(c2cc3ccccc3s2)=NO1 (stereo not shown) [compound 11] |  | 100% | 100% | 2000 nM |  |  | 
9 | Cc1ccc2sc(C3=NOCC[S+]3[O-])c(C)c2c1 (stereo not shown) [compound 12] |  | 100% | 100% | 700 nM |  |  | 
10 | [O-][S+]1CCON=C1c1sc2ccccc2c1Br (stereo not shown) [compound 13, 3-(3-bromo-1-benzothiophen-2-yl)-5,6-dihydro-1,4λ^4,2-oxathiazin-4-one] |  |  |  |  | 100% | 100% | 1000 nM
11 | [O-][S+]1CCON=C1c1cc2ccccc2[s+]1[O-] (stereo not shown) [compound 14] |  | 100% | 100% | 1000 nM |  |  | 
12 | O=S1(=O)CCON=C1C1=Cc2ccccc2S1(=O)=O [compound 15] |  | 100% | 100% | 500 nM |  |  | 
13 | CCC1CS(=O)(=O)C(c2ccccc2)=C(c2ccccc2)S1(=O)=O (stereo not shown) [compound 16] |  | 80% | 100% | 4000 nM |  |  | 
14 | CCCCC1=C(c2ccccc2)S(=O)(=O)CCS1(=O)=O [compound 18] |  | 70% | 100% | 5000 nM |  |  | 
15 | CC1C(C)S(=O)(=O)C(c2ccccc2)=CS1(=O)=O (stereo not shown) [compound 19] |  | 100% | 100% | 4000 nM |  |  | 
16 | CC1=C(COc2ccccc2)S(=O)(=O)CCS1(=O)=O [compound 21, 2-methyl-3-(phenoxymethyl)-5,6-dihydro-1λ^6,4λ^6-dithiine-1,1,4,4-tetrone] |  |  |  |  | 100% | 100% | 600 nM
17 | CC1=C(CS(=O)(=O)c2ccccc2)S(=O)(=O)CCS1(=O)=O [compound 22] |  | 100% | 100% | 1000 nM |  |  | 
18 | COCC1=C(COC)S(=O)(=O)CCS1(=O)=O [compound 23] |  | 100% | 100% | 2300 nM |  |  | 
